For 34 compounds, IC50 results are on record in the Kinase Knowledgebase extract (Sharma et al. 2016).

Values joined by “and” are separate entries in the source; they are usually repeats but may differ in a detail not shown here. Equal values may be shown once.

The target in experiment [1] is PIK3CA (human) (UniProt P42336). Description: Inhibition of PIK3CA Kinase Activity.
The target of experiment [2] is PIK3CA (human), P42336 [Antiproliferation of PI3K Mutated BT20 Cells]. Description: Cell-Based Assay.
PIK3CA (human), P42336 [Antiproliferation of PI3K Mutated BT20 Cells], sequence (P42336 whole entry, looked up, change not shown): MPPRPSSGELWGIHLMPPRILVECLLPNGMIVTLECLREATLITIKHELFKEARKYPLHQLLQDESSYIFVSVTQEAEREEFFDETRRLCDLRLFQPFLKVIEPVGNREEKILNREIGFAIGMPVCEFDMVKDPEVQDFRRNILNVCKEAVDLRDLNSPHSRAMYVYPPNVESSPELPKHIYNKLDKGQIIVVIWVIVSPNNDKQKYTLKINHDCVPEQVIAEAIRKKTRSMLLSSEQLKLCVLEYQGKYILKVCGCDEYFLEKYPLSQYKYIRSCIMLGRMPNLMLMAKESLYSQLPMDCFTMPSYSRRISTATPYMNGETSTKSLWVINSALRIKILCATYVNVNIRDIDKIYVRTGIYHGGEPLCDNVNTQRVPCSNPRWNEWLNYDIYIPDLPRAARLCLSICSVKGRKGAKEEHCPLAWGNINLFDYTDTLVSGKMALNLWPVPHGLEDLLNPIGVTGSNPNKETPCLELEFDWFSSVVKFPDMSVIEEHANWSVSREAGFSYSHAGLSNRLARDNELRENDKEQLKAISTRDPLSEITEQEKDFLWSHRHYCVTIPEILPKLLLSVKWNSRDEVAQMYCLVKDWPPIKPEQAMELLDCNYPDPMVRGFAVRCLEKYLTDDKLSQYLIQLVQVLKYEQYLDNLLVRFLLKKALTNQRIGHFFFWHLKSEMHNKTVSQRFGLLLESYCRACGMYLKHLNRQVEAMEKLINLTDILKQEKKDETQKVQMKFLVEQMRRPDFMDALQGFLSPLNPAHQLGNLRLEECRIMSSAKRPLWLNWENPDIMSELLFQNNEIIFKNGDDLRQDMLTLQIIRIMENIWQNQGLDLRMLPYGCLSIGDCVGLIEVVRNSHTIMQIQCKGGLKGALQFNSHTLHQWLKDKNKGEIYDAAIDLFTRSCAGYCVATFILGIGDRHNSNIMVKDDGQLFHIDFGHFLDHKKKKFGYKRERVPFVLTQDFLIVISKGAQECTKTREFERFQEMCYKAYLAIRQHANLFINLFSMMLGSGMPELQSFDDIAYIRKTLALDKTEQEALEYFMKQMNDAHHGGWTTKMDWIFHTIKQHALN

PIK3CA (human), sequence (P42336 whole entry, looked up): as the sequence (P42336 whole entry, looked up, change not shown) above

The IC50 is the concentration that gives 50% inhibition. With `CNc1nc(C)c2cc(-c3ncccc3F)c(=O)n(C3CCCC3)c2n1`, the IC50 came out at 2100 nM in experiment [1] and 8300 nM in experiment [2].
In the same order, the values of `Cc1nc(N)nc2c1cc(-c1cnn(C)c1)c(=O)n2[C@H]1CC[C@H](OCCO)CC1` are 22.3 nM and 226 nM.
On to `CNc1nc(C)c2cc(-c3c[nH]c(C)n3)c(=O)n(C3CCCC3)c2n1`, for which the concentration for half-maximal inhibition (IC50) in experiment [1] amounted to 67 nM; in experiment [2], 181 nM.
In the same order, the values of `COc1ccc(-c2cc3c(C)nc(N)nc3n(C3CCC(=O)CC3)c2=O)cn1` are 4.3 nM and 19.3 nM.
In the same order, the values of `COc1ccc(-c2cc3c(C)nc(N)nc3n([C@H]3CC[C@H](OC[C@@H](O)CO)CC3)c2=O)cn1` are 6.82 nM and 13.2 nM.
In the same order, the values of `Cc1nc(N)nc2c1cc(C#N)c(=O)n2C1CCC1` are 95 nM and 2090 nM.
Consider `Cc1nc(N)nc2c1cc(-c1cnc3[nH]ccc3c1)c(=O)n2C1CN(C(=O)OC(C)(C)C)C1`, for which the values for the half-inhibitory concentration (IC50) in experiment [1] and in experiment [2] were 38 nM and 256 nM, respectively.
In the same order, the values of `Cc1nc(N)nc2c1cc(-c1cnc3[nH]ccc3c1)c(=O)n2C(C)C` are 2.3 nM and 6.77 nM.
In the same order, the values of `CNc1nc(C)c2cc(-c3cncnc3)c(=O)n(C3CCCC3)c2n1` are 23 nM and 305 nM.
In the same order, the values of `CNc1nc(C)c2cc(-c3cnc(N)c(OC[C@H](C)N)n3)c(=O)n(C3CCCC3)c2n1` are 400 nM and 2330 nM.
With `CCNc1nc(C)c2cc(-c3ccc(O)c(OC)c3)c(=O)n(C3CCCC3)c2n1`, the concentration for half-maximal inhibition (IC50) was determined as 3.08 nM in experiment [1] and 26.3 nM in experiment [2].
In the same order, the values of `Cc1nc(N)nc2c1cc(-c1cnc3[nH]ccc3c1)c(=O)n2C1CCC1` are 2 nM and 11.9 nM.
In the same order, the values of `CO[C@H]1CC[C@H](n2c(=O)c(Br)cc3c(C)nc(N)nc32)CC1` are 31 nM and 64 nM.
For the compound `COc1ccc(-c2cc3c(C)nc(N)nc3n([C@@H]3CC[C@@H](O)C3)c2=O)cn1`, the IC50 in experiment [1] amounted to 4.6 nM; in experiment [2], 87.6 nM.
For the compound `Cc1nc(N)nc2c1cc(-c1cnc3[nH]ccc3c1)c(=O)n2[C@H]1CC[C@H](O)CC1`, the figures for the half-maximal inhibitory concentration (IC50) in experiment [1] and in experiment [2] were 1.3 nM and 31.9 nM, respectively.
In the same order, the values of `Cc1nc(N)nc2c1cc(-c1ccc(F)cc1)c(=O)n2CC(C)(C)O` are 3400 nM and 10000 nM.
In the same order, the values of `Cc1nc(N)nc2c1cc(-c1cn[nH]c1)c(=O)n2[C@H]1CC[C@@H](OCCO)CC1` are 29.7 nM and 9.1 nM.
With `CNc1nc(C)c2cc(-c3cccc(O)c3)c(=O)n(C3CCCC3)c2n1`, the results for the IC50 in experiment [1] and in experiment [2] were 0.731 nM and 1.76 nM, respectively.
In the case of `COc1ncc(-c2cc3c(C)nc(N)nc3n([C@H]3C[C@H](OCC(N)=O)C3)c2=O)cc1F`, the IC50 in experiment [1] came out at 2.14 nM; in experiment [2], 12.6 nM.
In the same order, the values of `Cc1nc(N)nc2c1cc(-c1ccc(OC(C)C)nc1)c(=O)n2[C@H]1CC[C@H](O)CC1` are 9.4 nM and 71.8 nM.
Consider `CNc1nc(C)c2cc(-c3ccc(OC)nc3)c(=O)n(C(C)C)c2n1`, for which the half-maximal inhibitory concentration (IC50) was 110 nM and 21 nM in experiment [1]; 95.2 nM in experiment [2].
With `CNc1nc(C)c2cc(-c3cn[nH]c3)c(=O)n(C3CCCC3)c2n1`, the figures for the IC50 in experiment [1] and in experiment [2] were 8 nM and 2.58 nM, respectively.
In the same order, the values of `COc1ccc(-c2cc3c(C)nc(N)nc3n(CC(F)(F)F)c2=O)cn1` are 130 nM and 262 nM.
Regarding `CNc1nc(C)c2cc(-c3cccnc3OC)c(=O)n(C3CCCC3)c2n1`, the IC50 came out at 275 nM in experiment [1] and 3530 nM in experiment [2].
`CNc1nc(C)c2cc(-c3cnc4[nH]ccc4c3)c(=O)n(CC3CCOC3)c2n1` (stereo not drawn): the results for the IC50 in experiment [1] and in experiment [2] were 1.6 nM and 13.5 nM, respectively.
In the same order, the values of `Cc1nc(N)nc2c1cc(Br)c(=O)n2CC(C)(C)O` are 680 nM and 2360 nM.
With `Cc1nc(N)nc2c1cc(-c1cccc(CO)c1)c(=O)n2C1CCOCC1`, the IC50 in experiment [1] is 3.9 nM; in experiment [2], 33.2 nM.
In the same order, the values of `Cc1nc(N)nc2c1cc(-c1cc[nH]n1)c(=O)n2[C@H]1CC[C@H](O)CC1` are 10 nM and 25.2 nM.
With `Cc1cc(-c2cc3c(C)nc(N)nc3n(C3CCCC3)c2=O)cnc1N(C)C`, the concentration for half-maximal inhibition (IC50) stood at 11 nM in experiment [1] and 23.1 nM in experiment [2].
For `COc1ccc(-c2cc3c(C)nc(N)nc3n(C3CCNC3)c2=O)cn1` (stereo not drawn), the IC50 in experiment [1] worked out at 200 nM; in experiment [2] it was 671 nM.
In the same order, the values of `COc1ccc(-c2cc3c(C)nc(N)nc3n(C(C)C)c2=O)cn1` are 11 nM and 64 nM.
In the same order, the values of `Cc1nc(N)nc2c1cc(-c1cnc3[nH]ccc3c1)c(=O)n2C1CCCC1` are 0.48 nM and 2.76 nM.
In the same order, the values of `CCNc1nc(C)c2cc(CCCO)c(=O)n(C3CCCC3)c2n1` are 4 nM and 2750 nM.
Regarding `Cc1nc(N)nc2c1cc(-c1cccc(Cl)n1)c(=O)n2C1CCCC1`, the IC50 in experiment [1] was found to be 170 nM; in experiment [2] it was 3450 nM.
